From PubChem BioAssay AID1963850 (Molecular Pharmacology Branch, DTP, NCI, 2024)
pIC50: −log10 of the molar value.

Test system: 192522-019-R-J2-PDC complex tumor spheroid viability
Experiment: Anticancer human tumor 192522-019-R-J2-PDC patient-derived colon adenocarcinoma cell line growth inhibition [POLQ]
Conditions: for pIC50: curve of first compound; for viability, T/C: stronger effect = lower value
Procedure, shortened: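 Growth inhibition in 3D: complex spheroids (tumor PDC, HUVEC, MSC) treated with POLQ inhibitor combinations; where Cmax unknown, highest tested concentration 10 microM, except SN-38 at 1 microM.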
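Also: spheroids exposed to drugs for seven days before reading.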
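For viability, T/C in this document: 100% = DMSO vehicle control viability in luminescence.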

Cn1ncnc1[C@H]1c2n[nH]c(=O)c3cc(F)cc(c23)N[C@@H]1c1ccc(F)cc1 + Cc1cccc(N(C)C(=O)C2C(O)CCN2c2nc(C)cc(C(F)(F)F)c2C#N)c1
pIC50 (second compound 0.0316 µM): < 7.00
pIC50 (second compound 0.1 µM): < 7.00
pIC50 (second compound 0.316 µM): < 7.00
pIC50 (second compound 1 µM): < 7.00
pIC50 (second compound 3.16 µM): < 7.00
pIC50 (second compound 10 µM): < 7.00
viability, T/C (second compound 0.0316 µM, first compound 0.000316 µM): 109%
viability, T/C (second compound 0.0316 µM, first compound 0.001 µM): 96.1%
viability, T/C (second compound 0.0316 µM, first compound 0.00316 µM): 96.3%
viability, T/C (second compound 0.0316 µM, first compound 0.01 µM): 103%
viability, T/C (second compound 0.0316 µM, first compound 0.0316 µM): 110%
viability, T/C (second compound 0.0316 µM, first compound 0.1 µM): 88.6%
viability, T/C (second compound 0.1 µM, first compound 0.000316 µM): 99.2%
viability, T/C (second compound 0.1 µM, first compound 0.001 µM): 96.3%
viability, T/C (second compound 0.1 µM, first compound 0.00316 µM): 105%
viability, T/C (second compound 0.1 µM, first compound 0.01 µM): 101%
viability, T/C (second compound 0.1 µM, first compound 0.0316 µM): 108%
viability, T/C (second compound 0.1 µM, first compound 0.1 µM): 101%
viability, T/C (second compound 0.316 µM, first compound 0.000316 µM): 111%
viability, T/C (second compound 0.316 µM, first compound 0.001 µM): 103%
viability, T/C (second compound 0.316 µM, first compound 0.00316 µM): 114%
viability, T/C (second compound 0.316 µM, first compound 0.01 µM): 105%
viability, T/C (second compound 0.316 µM, first compound 0.0316 µM): 103%
viability, T/C (second compound 0.316 µM, first compound 0.1 µM): 102%
viability, T/C (second compound 1 µM, first compound 0.000316 µM): 110%
viability, T/C (second compound 1 µM, first compound 0.001 µM): 108%
viability, T/C (second compound 1 µM, first compound 0.00316 µM): 109%
viability, T/C (second compound 1 µM, first compound 0.01 µM): 103%
viability, T/C (second compound 1 µM, first compound 0.0316 µM): 100%
viability, T/C (second compound 1 µM, first compound 0.1 µM): 95.3%
viability, T/C (second compound 3.16 µM, first compound 0.000316 µM): 125%
viability, T/C (second compound 3.16 µM, first compound 0.001 µM): 106%
viability, T/C (second compound 3.16 µM, first compound 0.00316 µM): 112%
viability, T/C (second compound 3.16 µM, first compound 0.01 µM): 101%
viability, T/C (second compound 3.16 µM, first compound 0.0316 µM): 118%
viability, T/C (second compound 3.16 µM, first compound 0.1 µM): 96.9%
viability, T/C (second compound 10 µM, first compound 0.000316 µM): 114%
viability, T/C (second compound 10 µM, first compound 0.001 µM): 103%
viability, T/C (second compound 10 µM, first compound 0.00316 µM): 119%
viability, T/C (second compound 10 µM, first compound 0.01 µM): 102%
viability, T/C (second compound 10 µM, first compound 0.0316 µM): 111%
viability, T/C (second compound 10 µM, first compound 0.1 µM): 101%
